Results taken from ChEMBL document CHEMBL1944548, “Discovery of kinase spectrum selective macrocycle (16E)-14-methyl-20-oxa-5,7,14,26-tetraazatetracyclo[19.3.1.1(2,6).1(8,12)]heptacosa-1(25),2(26),3,5,8(27),9,11,16,21,23-decaene (SB1317/TG02), a potent inhibitor of cyclin dependent kinases (CDKs), Janus kinase 2 (JAK2), and fms-like tyrosine …” (J Med Chem, 2012).

Target: T1, Receptor-type tyrosine-protein kinase FLT3 (Homo sapiens, UniProt P36888)
T1 sequence (P36888 whole entry): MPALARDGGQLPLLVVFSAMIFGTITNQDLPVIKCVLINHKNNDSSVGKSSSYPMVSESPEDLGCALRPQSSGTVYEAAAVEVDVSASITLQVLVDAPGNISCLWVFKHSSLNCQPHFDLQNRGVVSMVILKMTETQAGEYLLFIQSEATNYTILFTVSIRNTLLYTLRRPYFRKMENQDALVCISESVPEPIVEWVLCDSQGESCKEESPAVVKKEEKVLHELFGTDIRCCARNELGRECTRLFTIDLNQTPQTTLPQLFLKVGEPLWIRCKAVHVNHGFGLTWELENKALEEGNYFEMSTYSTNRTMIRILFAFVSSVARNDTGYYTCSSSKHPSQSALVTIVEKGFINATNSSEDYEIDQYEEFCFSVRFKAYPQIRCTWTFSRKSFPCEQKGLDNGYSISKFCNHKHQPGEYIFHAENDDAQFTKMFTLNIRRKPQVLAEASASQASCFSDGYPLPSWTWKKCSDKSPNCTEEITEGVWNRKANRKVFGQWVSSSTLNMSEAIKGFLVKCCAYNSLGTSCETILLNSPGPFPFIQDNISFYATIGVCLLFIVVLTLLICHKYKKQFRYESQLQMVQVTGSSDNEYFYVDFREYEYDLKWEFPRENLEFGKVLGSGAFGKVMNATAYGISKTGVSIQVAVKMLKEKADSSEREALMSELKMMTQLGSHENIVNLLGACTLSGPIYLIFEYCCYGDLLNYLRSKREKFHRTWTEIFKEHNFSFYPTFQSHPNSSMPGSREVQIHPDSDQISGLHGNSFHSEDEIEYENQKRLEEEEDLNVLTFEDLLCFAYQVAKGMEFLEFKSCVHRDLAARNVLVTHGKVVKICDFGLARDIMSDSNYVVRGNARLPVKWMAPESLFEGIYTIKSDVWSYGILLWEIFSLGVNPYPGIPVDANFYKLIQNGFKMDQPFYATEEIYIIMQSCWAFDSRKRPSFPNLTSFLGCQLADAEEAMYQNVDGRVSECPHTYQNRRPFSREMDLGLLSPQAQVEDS
Assay: Inhibition of recombinant Flt3 using poly(Glu,Tyr) as substrate after 2 hrs by luminescence assay

Structure (SMILES): CN1C/C=C/CCOc2cccc(c2)-c2ccnc(n2)Nc2cccc(c2)C1 [ZOTIRACICLIB]
- IC50: 56 nM
